Results on six molecules are retold here after article PMC8198043, “Tetracyclic Thioxanthene Derivatives: Studies on Fluorescence and Antitumor Activity” (Molecules, 2021).

For one series, the system named is A375-C5 (melanoma). Put plainly: SRB cell growth inhibition assay, A375-C5. The series is classed as cell-based, human. Particulars: for GI50: Homo sapiens, A375-C5, SRB assay, continuous exposure for 48 h, mean ± SD, at least three independent experiments, read-out: Antitumor Activity (GI50) A375-C5; for Selectivity Index A375-C5: ratio of GI50 in non-tumor HPAEpiC cells over GI50 in A375-C5. On the procedure: (§1) To evaluate the biological activity of compounds 11–14, three human tumor cell lines (European Collection of Cell Culture, Salisbury, Wiltshire, UK) were used: A375-C5 (melanoma), MCF-7 (breast adenocarcinoma) and NCI-H460 (non-small cell lung cancer). Cells were grown in RPMI-1640 culture medium (Biochrom, Berlin, Germany) supplemented with 5% heat-inactivated fetal bovine serum (FBS, Biochrom) and maintained in a humidified incubator at 37 °C with 5% CO2 (Hera Cell, Heraeus).
(§2) The antitumor activity of compounds was accessed through the determination of the GI50 by the sulforhodamine B assay (SRB, Sigma-Aldrich). Tumor cells were seeded in 96-well plates (0.05 × 10^6 cells/well) in complete culture medium and incubated at 37 °C for 24 h, allowing cell attachment. Cells were then incubated with two-fold serial dilutions of the test compounds, with concentrations ranging from 0 to 75 μM. Dimethyl sulfoxide-treated cells (DMSO), up to 0.25% concentration, were included as compounds solvent control. Forty-eight hours later, cells were fixed with 50% (m/v) trichloroacetic acid (Merck Millipore, Darmstadt, Germany), washed with distilled water and stained with SRB for 30 min at room temperature. The SRB-stained cells were washed 5 times with 1% (v/v) acetic acid (Merck Millipore) and afterwards dried at RT; SRB complexes were solubilized by adding 10 mM Tris-Base buffer (Sigma-Aldrich) for 30 min. Absorbance was measured at 515 nm in a microplate reader (BioTek Synergy 2, BioTek Instruments Inc., Winooski, VT, USA).The concentration that caused cell growth inhibition of 50% (GI50) was determined based on a dose–response curve obtained for each cell line with each test compound.

The test system of series [1] is MCF-7 (breast adenocarcinoma). As to the kind of experiment: SRB cell growth inhibition assay, MCF-7. It counts as cell-based, human. Particulars: for GI50: Homo sapiens, MCF7, SRB assay, continuous exposure for 48 h, mean ± SD, at least three independent experiments, read-out: Antitumor Activity (GI50) MCF-7; for Selectivity Index MCF-7: ratio of GI50 in non-tumor HPAEpiC cells over GI50 in MCF-7. On the procedure: as §1, §2
(In general: In SRB staining, fixed cells bind dye roughly in proportion to their protein.)

Series [2] has as its system NCI-H460 (non-small cell lung cancer). Put plainly: SRB cell growth inhibition assay, NCI-H460. It counts as cell-based, human. Particulars: for GI50: Homo sapiens, NCI-H460, SRB assay, continuous exposure for 48 h, mean ± SD, at least three independent experiments, read-out: Antitumor Activity (GI50) NCI-H460; for Selectivity Index NCI-H460: ratio of GI50 in non-tumor HPAEpiC cells over GI50 in NCI-H460. On the procedure: as §1, §2

For series [3], the system named is Human Pulmonary Alveolar Epithelial Cells (HPAEpiC). As to the kind of experiment: Cell toxicity in non-tumor cells (GI50). It counts as cell-based. As to conditions: mean ± SD of three independent experiments. On the procedure:
as §2
The non-tumor Human Pulmonary Alveolar Epithelial Cells (HPAEpiC) were used to assess the degree of selectivity of the compounds, as the ratio of GI50 in non-tumor cells over GI50 in cancer cells. A selectivity index value less than 2.0 indicates the general toxicity of the compound [32].

Series [4] relates to A375-C5, MCF-7 and NCI-H460. As to the kind of experiment: SRB cell growth inhibition, span over the three tumor cell lines. As to conditions: Homo sapiens; A375-C5, MCF-7 and NCI-H460 taken together; read-out: GI50, range over the tested cell lines. The series is classed as cell-based. On the procedure:
as §1
The antitumor activity of compounds was accessed through the determination of the GI50 by the sulforhodamine B assay (SRB, Sigma-Aldrich). Tumor cells were seeded in 96-well plates (0.05 × 10^6 cells/well) in complete culture medium and incubated at 37 °C for 24 h, allowing cell attachment. Cells were then incubated with two-fold serial dilutions of the test compounds, with concentrations ranging from 0 to 75 μM. Dimethyl sulfoxide-treated cells (DMSO), up to 0.25% concentration, were included as compounds solvent control. Forty-eight hours later, cells were fixed with 50% (m/v) trichloroacetic acid (Merck Millipore, Darmstadt, Germany), washed with distilled water and stained with SRB for 30 min at room temperature. […]

Series [5] can be described thus: Photophysical studies (absorption and emission in DMSO). It counts as physicochemical. As to conditions: for λmax: absorption; for λem: emission; for ΦF: fluorescence quantum yield, by comparison with fluorescein (φf = 90%); for log ε: molar absorption coefficient. The procedure: The absorption spectra in dimethyl sulfoxide solutions were obtained on a Shimadzu UV-2501 PC spectrophotometer (1 cm path length quartz cell) and the emission spectra were recorded on a JASCO spectrofluorometer. Molar absorption coefficients were determined using 4 measurements in the concentration range 10^−3–10^−6 mol.L^−1. Fluorescence quantum yields were determined by comparison with fluorescein in 0.1 M NaOH water solution as a fluorescence standard (φf = 90%).

Series [6] deals with myeloid leukemia K562 cell line (doxorubicin-sensitive). Further details: method as in PMID 26771595. Particulars: previous results by the group; cited from earlier work.
The test system of series [7] is myeloid leukemia K562 cell line (doxorubicin-resistant). Set-up: method as in PMID 26771595. As to conditions: previous results by the group; cited from earlier work.

One may read the GI50 as the concentration that inhibits growth by half. For `CCCOc1ccc2nc(N)nc3c2c1Sc1ccccc1-3` [Compound 11, 6-Propoxythiochromeno[4,3,2-de]quinazolin-2-amine], in the series on A375-C5 (melanoma), the GI50 came to 6.48 ± 0.88 µM and the “Selectivity Index A375-C5” value came out at 4.13. Besides, in series [1], the concentration for 50% growth inhibition (GI50) is 6.39 ± 0.49 µM and the “Selectivity Index MCF-7” value is on record as 4.19. Besides, in series [2], the 50% growth inhibitory concentration (GI50) came out at 5.66 ± 0.89 µM and the “Selectivity Index NCI-H460” value was 4.73. For the same molecule, the GI50 in series [3] was found to be 26.8 ± 1.2 µM. For the same molecule, the 50% growth inhibitory concentration (GI50) in series [4] was in the range of 5 to 7 µM. In series [5], the “Stokes’ Shift” value is 92 nm, the λmax was found to be 456 nm, the λem turned out to be 548 nm and the ΦF was 29.0%. Also, the “log ε” value in series [5] was found to be 3.67.

As to `COc1cccc2c1C(=O)c1c(O)c3c(c(O)c1C2=O)C[C@@](O)(C(=O)CO)C[C@@H]3O[C@H]1C[C@H](N)[C@H](O)[C@H](C)O1` [Doxorubicin, reference compound], in the series on A375-C5 (melanoma), the GI50 was found to be 0.016 ± 0.005 µM and the “Selectivity Index A375-C5” value was 3.38. Also, in series [1], the GI50 is 0.018 ± 0.003 µM and the “Selectivity Index MCF-7” value amounted to 3.00. In series [2], the GI50 was found to be 0.024 ± 0.006 µM and the “Selectivity Index NCI-H460” value was 2.25. The GI50 in series [3] turned out to be 0.054 ± 0.005 µM.

For `CCCOc1ccc2nc(NCc3ccccc3Cl)nc3c2c1Sc1ccccc1-3` [Compound 13, N-(2-Chlorobenzyl)-6-propoxythiochromeno[4,3,2-de]quinazolin-2-amine], in the series with A375-C5 (melanoma), the GI50 came to 22.9 ± 3.75 µM and the “Selectivity Index A375-C5” value is listed as 5.59. Further, in series [1], the 50% growth inhibitory concentration (GI50) was 18.9 ± 1.42 µM and the “Selectivity Index MCF-7” value is 6.79. In series [2], the GI50 is 17 ± 3.12 µM and the “Selectivity Index NCI-H460” value was determined as 7.54. Besides, in series [3], the GI50 was 128 ± 1.56 µM. Besides, in series [5], the “Stokes’ Shift” value came to 91 nm, the λmax was determined as 457 nm, the λem stood at 548 nm and the ΦF is recorded as 31.3%. Moreover, the “log ε” value in series [5] is recorded as 3.72.

With `CCCOc1ccc2c3c(n/c(=N/c4ccccc4C)n2-c2ccccc2C)-c2ccccc2Sc13` [Compound 14, (E)-6-Propoxy-N,3-di-o-tolylthiochromeno[4,3,2-de]quinazolin-2(3H)-imine], the GI50 with A375-C5 (melanoma) turned out to be 8.02 ± 3.59 µM. Besides, the 50% growth inhibitory concentration (GI50) in series [1] amounted to 9.04 ± 0.89 µM. Further, in series [2], the 50% growth inhibitory concentration (GI50) stood at 10.6 ± 0.31 µM. Also, in series [3], the GI50 was more than 150 µM. In addition, the GI50 in series [4] lay within 8 to 11 µM. Also, in series [5], the “Stokes’ Shift” value is 80 nm, the λmax stood at 480 nm, the λem is recorded as 560 nm and the ΦF is given as less than 0.1%. Besides, the “log ε” value in series [5] is reported as 4.00.

Take `CCCOc1ccc2ncnc3c2c1Sc1ccccc1-3` [Compound 12, 6-Propoxythiochromeno[4,3,2-de]quinazoline]: in the series with A375-C5 (melanoma), the GI50 was found to be 38.8 ± 5.93 µM and the “Selectivity Index A375-C5” value is 1.01. In addition, in series [1], the GI50 was 33.8 ± 1.61 µM and the “Selectivity Index MCF-7” value stood at 1.16. Further, in series [2], the GI50 is 31.2 ± 1.53 µM and the “Selectivity Index NCI-H460” value amounted to 1.26. The GI50 in series [3] came out at 39.28 ± 0.25 µM. Moreover, in series [5], the “Stokes’ Shift” value is listed as 89 nm, the λmax is on record as 394 nm, the λem stood at 483 nm and the ΦF turned out to be 50.7%. In addition, in series [5], the “log ε” value amounted to 3.72.

As for `CCCOc1ccc(NCCN(CC)CC)c2c(=O)c3ccccc3sc12` [Compound 4], the GI50 in series [6] and in series [7] was 1.9 µM in each case.
